Structures can show the parent of a compound that is named as a salt.
Assays:
[1] = molecular target: membrane preparation from rat hearts (binding sites of D-myo-inositol-1,2,6-triphosphate); assay: Displacement of tritiated D-myo-inositol-1,2,6-triphosphate from rat heart membrane preparation; details: rat heart membranes, 60 minutes in ice, 50 mM HEPES pH 7.4
Procedure: A membrane preparation for binding experiments was prepared at 4° C. Remaining blood was removed from fresh rats hearts (approx. 25 g) and the hearts were minced on chilled plates and blended thoroughly with 20 volumes (v/w) of 0.32M sucrose. The mixture was homogenized using a glass homogenizer followed by centrifugation at 800 g for 10 minutes. The supernatant was thereafter recentrifuged at 21000 g for 20 minutes. The resulting pellets were suspended in 20 volumes of ice cold water before homogenization and centrifugation. The supernatant was collected by pipetting followed by recentrifugation. […]
The assay mixtures were incubated for 60 minutes in ice and binding reactions were terminated by centrifugation for 5 minutes. The surface of the pellets were washed with 1 ml of iced 50 mM HEPES buffer (pH 7.4) before measuring the incorporated radioactivity by means of a scintillation counter.
An IC50 value can be determined by calculation of the replacement ratio of the tritiated reference compound at different concentrations of the specific compound. This value represents the concentration needed to replace half the amount of the tritiated reference compound and is expressed as log (conc. of compound). […] Following the above described procedure the binding properties of 1,5-anhydro-D-arabinitol-2,3,4-trisphosphate was determined. […]

[2] = test system: binding sites for phosphorylated compounds in membrane preparation from rat brains; assay: Displacement of tritiated D-myo-inositol-1,3,4,5-tetraphosphate (IP4) from rat brain membrane preparation; details: rat brain plasma membrane fragments saturated with tritiated IP4; remaining radioactivity after addition of compound and washing
Description: A membrane preparation was obtained from rat brains in a way suitable to provide membrane fragments from plasma membranes. From earlier studies these membrane preparations are known to comprise binding sites for phosphorylated compounds. The physiological role of these binding sites are to regulate for example vascular leakage and oedema formation in the body. The degree of binding of a specific compound to these binding sites predicts the efficiency to counteract vascular leakage in vivo.
The membrane preparation was first saturated with a tritiated control compound. The control compound was D-myo-inositol-1,3,4,5-tetraphosphate (IP4). Addition of a further compound having, increased binding properties, compared to the control compound, will result in a replacement of the control compound and thus in a reduction of the radioactivity in the sample.
The 1,5-anhydro-D-arabinitol-2,3,4-trisphosphate pentakis (cyclohexylammonium) salt obtained in Example 2 was added to a membrane preparation as described above. After washing, the radioactivity was 30% compared to the control compound (IP4), thus showing a significant binding to the preparation.

| IC50 value (concentration needed to replace half the amount of the tritiated reference compound) [1] | radioactivity after washing compared to the control compound (IP4) [2] [%] | SMILES |
| --- | --- | --- |
| -6.9 log (conc. of compound) |  | O=P(O)(O)OC1[C@H](OP(=O)(O)O)COC[C@H]1OP(=O)(O)O [1,5-anhydro-D-arabinitol-2,3,4-trisphosphate] |
|  | 30 | O=P(O)(O)OC1[C@H](OP(=O)(O)O)COC[C@H]1OP(=O)(O)O [Example 2, 1,5-anhydro-D-arabinitol-2,3,4-trisphosphate pentakis (cyclohexylammonium) salt] |

Reference: patent US5654280A, “Pharmaceutical composition” (Perstorp AB, priority 1989, dated 1997)
